Ki data for 22 compounds are collected here from patent publication US9226916B2, “Pyrrolidine derivatives” (HOFFMANN-LA ROCHE INC., priority 2009, dated 2016).

The first assay deals with T1, recombinant human NK3 receptor (Homo sapiens, UniProt P29371).
T1 construct: expressed in transfected cells; host or cells: HEK293 cells, transient expression; membranes
T1 sequence (P29371 1-465): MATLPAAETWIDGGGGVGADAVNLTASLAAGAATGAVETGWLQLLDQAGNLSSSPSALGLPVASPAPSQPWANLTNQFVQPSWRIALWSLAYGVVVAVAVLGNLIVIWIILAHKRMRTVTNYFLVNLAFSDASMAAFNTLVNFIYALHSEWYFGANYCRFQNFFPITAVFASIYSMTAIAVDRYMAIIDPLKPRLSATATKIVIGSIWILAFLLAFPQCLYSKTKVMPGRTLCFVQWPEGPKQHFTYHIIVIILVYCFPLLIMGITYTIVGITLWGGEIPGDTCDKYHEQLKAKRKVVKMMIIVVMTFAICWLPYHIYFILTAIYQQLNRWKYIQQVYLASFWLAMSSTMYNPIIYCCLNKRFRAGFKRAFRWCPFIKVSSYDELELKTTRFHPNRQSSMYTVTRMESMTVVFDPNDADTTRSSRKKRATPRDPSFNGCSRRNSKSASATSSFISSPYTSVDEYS
The assay can be described thus: [3H]SR142801 competition binding assay.
Conditions: not given
As a reminder, the Ki is a measure of affinity in units of concentration, obtained from inhibition or displacement. Consider `CCC(C)OC(=O)N(C)[C@@H]1CN(C(=O)C2CCN(c3ccc(C#N)cn3)CC2)C[C@H]1c1ccc(Cl)cc1` (stereo partly drawn) [Example 157, [(3S,4R)-4-(4-Chloro-phenyl)-1-(5′-cyano-3,4,5,6-tetrahydro-2H-[1,2′]bipyridinyl-4-carbonyl)-pyrrolidin-3-yl]-methyl-carbamic acid sec-butyl ester], for which the inhibitory constant (Ki) came out at 27.1 nM.
On the same count and under the same terms, as for `Cc1ccc(OC(=O)N(C)[C@H]2CN(C(=O)C3CCN(CC4CC4)CC3)C[C@@H]2c2ccc(Cl)c(Cl)c2)cc1` (racemic) [Example 8, rac-[(3R,4S)-1-(1-Cyclopropylmethyl-piperidine-4-carbonyl)-4-(3,4-dichloro-phenyl)-pyrrolidin-3-yl]-methyl-carbamic acid p-tolyl ester], the figure is 4 nM; as for `CN(C(=O)Oc1cccc(F)c1F)[C@@H]1CN(C(=O)C2CCN(c3ccc(C#N)cn3)CC2)C[C@H]1c1ccc(Cl)cc1` [Example 211, [(3S,4R)-4-(4-Chloro-phenyl)-1-(5′-cyano-3,4,5,6-tetrahydro-2H-[1,2′]bipyridinyl-4-carbonyl)-pyrrolidin-3-yl]-methyl-carbamic acid 2,3-difluoro-phenyl ester], 2.4 nM; as for `CN(C(=O)Oc1ccc(S(C)(=O)=O)cc1)[C@@H]1CN(C(=O)C2CCN(c3ccc(C#N)cn3)CC2)C[C@H]1c1ccc(Cl)cc1` [Example 224, [(3S,4R)-4-(4-Chloro-phenyl)-1-(5′-cyano-3,4,5,6-tetrahydro-2H-[1,2′]bipyridinyl-4-carbonyl)-pyrrolidin-3-yl]-methyl-carbamic acid 4-methanesulfonyl-phenyl ester], 22.8 nM.
With `CC(=O)N1CCC(C(=O)N2C[C@@H](N(C)C(=O)Oc3ccc(F)cc3)[C@H](c3ccc(Cl)cc3)C2)CC1` [Example 246, [(3S,4R)-1-(1-Acetyl-piperidine-4-carbonyl)-4-(4-chloro-phenyl)-pyrrolidin-3-yl]-methyl-carbamic acid 4-fluoro-phenyl ester], the inhibition constant (Ki) came out at 2.3 nM.
As to `CN(C(=O)Oc1ccc(F)cc1)[C@@H]1CN(C(=O)C2CCN(C(=O)C3CC(F)C3)CC2)C[C@H]1c1ccc(Cl)c(Cl)c1` (stereo partly drawn) [Example 267, {(3S,4R)-4-(3,4-Dichloro-phenyl)-1-[1-(3-fluoro-cyclobutanecarbonyl)-piperidine-4-carbonyl]-pyrrolidin-3-yl}-methyl-carbamic acid 4-fluoro-phenyl ester], the Ki came out at 0.7 nM.
The same measure, in the same setting: then `CC(C)COC(=O)N(C)[C@@H]1CN(C(=O)C2CCN(c3ccc(C#N)cn3)CC2)C[C@H]1c1ccc(Cl)cc1` [Example 139, [(3S,4R)-4-(4-Chloro-phenyl)-1-(5′-cyano-3,4,5,6-tetrahydro-2H-[1,2′]bipyridinyl-4-carbonyl)-pyrrolidin-3-yl]-methyl-carbamic acid isobutyl ester], with 3.9 nM.
Still for that read-out and setting: as for `COCC1(C(=O)N2CCC(C(=O)N3C[C@@H](N(C)C(=O)Oc4ccc(F)cc4)[C@H](c4ccc(Cl)cc4)C3)CC2)CC1` [Example 259, {(3S,4R)-4-(4-Chloro-phenyl)-1-[1-(1-methoxymethyl-cyclopropanecarbonyl)-piperidine-4-carbonyl]-pyrrolidin-3-yl}-methyl-carbamic acid 4-fluoro-phenyl ester], the figure is 3.8 nM.
Same read-out and setting: as for `CN(C(=O)OCC1CC1)[C@H]1CN(C(=O)C2CCN(C(=O)C3(C)CC3)CC2)C[C@@H]1c1ccc(Cl)c(Cl)c1` (racemic) [Example 24, rac-{(3R,4S)-4-(3,4-Dichloro-phenyl)-1-[1-(1-methyl-cyclopropanecarbonyl)-piperidine-4-carbonyl]-pyrrolidin-3-yl}-methyl-carbamic acid cyclopropylmethyl ester], the figure is 33.5 nM; as for `CN(C(=O)Oc1ccc(C#N)c(F)c1)[C@@H]1CN(C(=O)C2CCN(c3ccc(C#N)cn3)CC2)C[C@H]1c1ccc(Cl)cc1` [Example 245, [(3S,4R)-4-(4-Chloro-phenyl)-1-(5′-cyano-3,4,5,6-tetrahydro-2H-[1,2′]bipyridinyl-4-carbonyl)-pyrrolidin-3-yl]-methyl-carbamic acid 4-cyano-3-fluoro-phenyl ester], 1.1 nM.
Regarding `CN(C(=O)Oc1ccc(F)cc1)[C@H]1CN(C(=O)CCC(N)=O)C[C@@H]1c1ccc(Cl)c(Cl)c1` (racemic) [Example 55, rac-[(3R,4S)-1-(3-Carbamoyl-propionyl)-4-(3,4-dichloro-phenyl)-pyrrolidin-3-yl]-methyl-carbamic acid 4-fluoro-phenyl ester], the Ki was 86.1 nM.
On the same count and under the same terms, as for `CC(=O)N1CCC(C(=O)N2C[C@H](c3ccc(Cl)c(Cl)c3)[C@@H](N(C)C(=O)Oc3ccc(F)cc3)C2)CC1` (racemic) [Example 65, rac-[(3R,4S)-1-(1-Acetyl-piperidine-4-carbonyl)-4-(3,4-dichloro-phenyl)-pyrrolidin-3-yl]-methyl-carbamic acid 4-fluoro-phenyl ester], the figure is 0.7 nM; as for `CN(C(=O)Oc1ccc(F)cc1)[C@H]1CN(C(=O)C2CCN(C(=O)C3CCOCC3)CC2)C[C@@H]1c1ccc(Cl)c(Cl)c1` (racemic) [Example 76, rac-{(3R,4S)-4-(3,4-Dichloro-phenyl)-1-[1-(tetrahydro-pyran-4-carbonyl)-piperidine-4-carbonyl]-pyrrolidin-3-yl}-methyl-carbamic acid 4-fluoro-phenyl ester], 0.7 nM; as for `CN(C(=O)Oc1ccc(F)cc1)[C@@H]1CN(C(=O)C2CCN(c3ncc(F)cn3)CC2)C[C@H]1c1ccc(Cl)cc1` [Example 169, {(3S,4R)-4-(4-Chloro-phenyl)-1-[1-(5-fluoro-pyrimidin-2-yl)-piperidine-4-carbonyl]-pyrrolidin-3-yl}-methyl-carbamic acid 4-fluoro-phenyl ester], 4.1 nM.
On the same count and under the same terms, as for `COc1ccc(OC(=O)N(C)[C@@H]2CN(C(=O)C3CCN(c4ccc(C#N)cn4)CC3)C[C@H]2c2ccc(Cl)cc2)cc1` [Example 201, [(3S,4R)-4-(4-Chloro-phenyl)-1-(5′-cyano-3,4,5,6-tetrahydro-2H-[1,2′]bipyridinyl-4-carbonyl)-pyrrolidin-3-yl]-methyl-carbamic acid 4-methoxy-phenyl ester], the figure is 3.3 nM; as for `CN(C(=O)O[C@@H]1C[C@H]2CC[C@@H]1C2)[C@H]1CN(C(=O)C2CCN(C(=O)C3(C)CC3)CC2)C[C@@H]1c1ccc(Cl)c(Cl)c1` (mixture of isomers) [Example 69, {(3R,4S)-4-(3,4-Dichloro-phenyl)-1-[1-(1-methyl-cyclopropanecarbonyl)-piperidine-4-carbonyl]-pyrrolidin-3-yl}-methyl-carbamic acid (1R,2R,4S)-bicyclo[2.2.1]hept-2-yl ester and {(3S,4R)-4-(3,4-Dichloro-phenyl)-1-[1-(1-methyl-cyclopropanecarbonyl)-piperidine-4-carbonyl]-pyrrolidin-3-yl}-methyl-carbamic acid (1R,2R,4S)-bicyclo[2.2.1]hept-2-yl ester], 7.6 nM; as for `CN(C(=O)Oc1ccc(F)cc1)[C@@H]1CN(C(=O)C2CCN(C(=O)C3(C)COC3)CC2)C[C@H]1c1ccc(Cl)cc1` [Example 248, {(3S,4R)-4-(4-Chloro-phenyl)-1-[1-(3-methyl-oxetane-3-carbonyl)-piperidine-4-carbonyl]-pyrrolidin-3-yl}-methyl-carbamic acid 4-fluoro-phenyl ester], 2.8 nM.
Consider `CN(C(=O)Oc1ccc(F)cc1)[C@@H]1CN(C(=O)C2CCN(c3ccc(Cl)cn3)CC2)C[C@H]1c1ccc(F)c(Cl)c1` [Example 316, [(3S,4R)-4-(3-Chloro-4-fluoro-phenyl)-1-(5′-chloro-3,4,5,6-tetrahydro-2H-[1,2′]bipyridinyl-4-carbonyl)-pyrrolidin-3-yl]-methyl-carbamic acid 4-fluoro-phenyl ester], for which the Ki was 0.9 nM.

The assay is the same for the next values; noted with them: hNK-3 receptor affinity; membranes from HEK293 cells transiently expressing recombinant human NK3 receptor; [3H]SR142801; Cheng-Prussoff; read-out: Data Ki.
For the compound `CN(C(=O)OCCC1CC1)[C@H]1CN(C(=O)C2CCN(C(=O)C3(C)CC3)CC2)C[C@@H]1c1ccc(Cl)c(Cl)c1` (racemic) [Example 25, rac-{(3R,4S)-4-(3,4-Dichloro-phenyl)-1-[1-(1-methyl-cyclopropanecarbonyl)-piperidine-4-arbonyl]-pyrrolidin-3-yl}-methyl-carbamic acid 2-cyclopropyl-ethyl ester], the inhibition constant (Ki) is 5.4 nM.
Same read-out and setting: as for `CN(C(=O)OCC1(C)COC1)[C@@H]1CN(C(=O)C2CCN(c3ccc(C#N)cn3)CC2)C[C@H]1c1ccc(Cl)cc1` [Example 218, [(3S,4R)-4-(4-Chloro-phenyl)-1-(5′-cyano-3,4,5,6-tetrahydro-2H-[1,2′]bipyridinyl-4-carbonyl)-pyrrolidin-3-yl]-methyl-carbamic acid 3-methyl-oxetan-3-ylmethyl ester], the figure is 19.5 nM; as for `CN(C(=O)OCCC1CC1)[C@H]1CN(C(=O)C2CCN(C(=O)C3(C)CC3)CC2)C[C@@H]1c1ccc(Cl)c(Cl)c1` [Example 35, {(3R,4S)-4-(3,4-Dichloro-phenyl)-1-[1-(1-methyl-cyclopropanecarbonyl)-piperidine-4-arbonyl]-pyrrolidin-3-yl}-methyl-carbamic acid 2-cyclopropyl-ethyl ester], 81.1 nM; as for `CN(C(=O)OCC(F)(F)F)[C@@H]1CN(C(=O)C2CCN(C(=O)C3(C)CC3)CC2)C[C@H]1c1ccc(Cl)cc1` [Example 164, {(3S,4R)-4-(4-Chloro-phenyl)-1-[1-(1-methyl-cyclopropanecarbonyl)-piperidine-4-carbonyl]-pyrrolidin-3-yl}-methyl-carbamic acid 2,2,2-trifluoro ethyl ester], 81.4 nM.
